{
  "source": "patent US20180353482A1",
  "about": "“MIRABEGRON FOR THE TREATMENT OF RETINAL DISEASES” (SORBONNE UNIVERSITE, priority 2015, published 2018)",
  "type_in_all_cases": "cell-based, porcine",
  "key": {"[1]": {"tested_on": "RPE cells", "assay": "Alkalinisation and measurement of lysosomal pH (pHL) of RPE cells treated with tamoxifen", "method": "After one week in culture, the cells are treated with trypsin and transferred to a 96-well plate with a black background at a cell density of 1.5×10^5 cells/cm^2 in DMEM2% FCS. After 24 hours, the cells are treated with a beta-adrenergic agonist (mirabegron, amibegron, clenbuterol or isoproterenol at 1 pM or CL-316,243 at 20 nM), and 5 minutes later with tamoxifen (15 μM), and the pHL is measured after a further 20 minutes. […] To measure the pHL, the cells are incubated with the dye for 5 minutes at 37° C., and the fluorescence emitted by the dye is measured on a plate reader. The excited light ratio at 329/384 nm is then converted into pH using a calibration series (pH 4 to pH 6) performed in a KCl buffer in the presence of 10 μM of monensin and 20 μM of nigericin, two ionophores."}, "[2]": {"tested_on": "RPE cells", "assay": "In vitro model of lipofuscin accumulation in RPE (oxidised photoreceptor outer segments)", "conditions": "FIG. 3", "procedure": "Pigs' eyes are delivered to Institut de la Vision in a cold medium from a local slaughterhouse. The eyes are dissected so as to remove the anterior segment of the eye, the vitreous body and the neural retina. The eyeballs are then washed twice with PBS, filled with trypsin (0.25% in PBS) and incubated at 37° C. for 1 hr15. The RPE cells are then retrieved by repeated pipetting, centrifuged to remove the trypsin, and resuspended in DMEM culture medium supplemented with 20% foetal calf serum (DMEM20% FCS). […]\nIn order to induce an accumulation of lipofuscin type material in the RPE cells, the latter are treated 3 times per week with 5×10^6 POS-ox in DMEM20% FCS containing 2.5% of sucrose for two weeks. […] The autofluorescence induced by the accumulation of lipofuscin is measured using a plate reader (excitation at 480 nm and emission between 500 and 700 nm corresponding to the emission spectrum of lipofuscin).\nIn order to verify whether the different beta-adrenergic agonists are capable of also acting upon lipofuscin accumulation, we also tested them in a cell model wherein this accumulation is induced by treating RPE cells with oxidised OS by UV exposure every two days. […] The lipofuscin accumulation was measured after two weeks of co-treatment by measuring the autofluorescence of the cells."}, "[3]": {"tested_on": "cathepsin D", "assay": "Cathepsin D activity measurement in RPE cells treated with concanamycin", "conditions": "FIG. 2", "procedure": "Pigs' eyes are delivered to Institut de la Vision in a cold medium from a local slaughterhouse. The eyes are dissected so as to remove the anterior segment of the eye, the vitreous body and the neural retina. The eyeballs are then washed twice with PBS, filled with trypsin (0.25% in PBS) and incubated at 37° C. for 1 hr15. The RPE cells are then retrieved by repeated pipetting, centrifuged to remove the trypsin, and resuspended in DMEM culture medium supplemented with 20% foetal calf serum (DMEM20% FCS). The cells of each eye are then inoculated in a 6 cm diameter Petri dish, cultured in an atmosphere containing 5% CO2 at 37° C., and the culture medium is replaced after 24 hours and 4 days in vitro. After one week, the cells reach confluency and can then be passaged.\nAfter one week in culture, the cells are treated with trypsin and transferred into 3.5 cm diameter Petri dishes at a cell density of 1.5×10^5 cells/cm^2 in DMEM2% FCS. After 24 hours, the cells are treated with 20 nM of concanamycin so as to inhibit the activity of cathepsin D, as well as with a beta-adrenergic agonist. After 24 hours of treatment, the cells are washed with PBS and then transferred into an extraction buffer on ice. The cell extract is centrifuged at 2000 rpm at 4° C. for 10 minutes and the supernatant corresponding to the cytosolic part is frozen at −80° C. until the measurement of the enzyme activity. The activity of cathepsin D is measured using the Anson method (J Gen Physiol. 1938, 22(1):79-89) that we adapted to our experimental schedule. In brief, the cytosolic extract is incubated for 10 minutes at 37° C. in a haemoglobin solution (2.5% in 400 mM of citrate buffer at pH 2.8). The reaction is stopped by adding 5% trichloroacetic acid and the mixture is centrifuged. The optical density of the supernatant containing the breakdown products of haemoglobin is measured at 280 nm. The absorbance is corrected by subtracting that of the control, prepared as above but by adding haemoglobin after stopping the enzymatic reaction. One unit of cathepsin D is then defined as being the quantity of enzyme required to induce a change of absorbance of 1 to 280 nm for 60 minutes of incubation using the experimental conditions described hereinabove. The protein concentration of the cell lysates is measured according to the Bradford method so as to normalise the results.\nCathepsin D is the lysosomal proteolytic enzyme mainly present in the retinal pigment epithelium involved in photoreceptor outer segment digestion. The activity thereof is dependent on the protonation of the amino acid aspartic acid of the active site thereof and on the conformation thereof, which both require an acidic environment. […]"}, "[4]": {"conditions": "RPE cells with 20 nM concanamycin, 24 hours of treatment"}},
  "note": "Entries after “also recorded” stand apart in the source; their conditions may differ.",
  "data": [
    {"smiles": "C[C@H](Cc1ccc2c(c1)OC(C(=O)[O-])(C(=O)[O-])O2)NC[C@H](O)c1cccc(Cl)c1.[Na+].[Na+]", "note": "[CL-316,243]", "values": [
      {"measurement": "concentration from which effective on re-acidification of the lysosomal pH", "setting": "[1]; cells treated with 15 μM tamoxifen, FIG. 1", "value": 20, "unit": "nM"}
    ]},
    {"smiles": "Nc1nc(CC(=O)Nc2ccc(CCNC[C@H](O)c3ccccc3)cc2)cs1", "note": "[mirabegron, (R)-2-(2-aminothiazol-4-yl)-4′-[2-[(2-hydroxy-2-phenylethyl)amino]ethyl]acetic acid anilide]", "values": [
      {"measurement": "effect on lipofuscin accumulation / photoreceptor outer segment digestion (in words)", "setting": "[2]; RPE cells, two weeks of treatment", "value": "significantly reduce the accumulation of lipofuscin; also recorded: reduces the accumulation of lipofuscin"},
      {"measurement": "reduction of the accumulation of lipofuscin by RPE cells (autofluorescence)", "setting": "[2]; agonist at 10 μM, two weeks of co-treatment with oxidised outer segments, versus DMSO control", "value": "~20", "unit": "%"},
      {"measurement": "effect on lysosomal pH (in words)", "setting": "[1]; 1 pM, FIG. 1", "value": "lowers the lysosomal pH"},
      {"measurement": "restoration of cathepsin D activity (in words)", "setting": "[3]; RPE cells treated with concanamycin", "value": "significantly restores the activity of cathepsin D"},
      {"measurement": "cathepsin D activity", "setting": "[3]; [4]", "value": "0.040 unit/ml of enzyme/min/μg of proteins"},
      {"measurement": "multiplication of cathepsin D activity compared to negative control (concanamycin)", "setting": "[3]; [4]", "value": 3, "unit": "fold"}
    ]},
    {"smiles": "CC/C(=C(\\c1ccccc1)c1ccc(OCCN(C)C)cc1)c1ccccc1", "note": "[tamoxifen]", "values": [
      {"measurement": "increase in the lysosomal pH", "setting": "[1]; 15 μM tamoxifen, in 20 minutes", "value": "~1", "unit": "pH unit"}
    ]},
    {"smiles": "C/C=C/[C@H]1O[C@@](O)([C@@H](C)[C@H](O)[C@H](C)[C@H]2OC(=O)/C(OC)=C/C(C)=C/[C@@H](C)[C@@H](O)[C@@H](CC)[C@@H](O)[C@H](C)C/C(C)=C/C=C/[C@@H]2OC)C[C@@H](O)[C@@H]1C", "note": "[concanamycin]", "values": [
      {"measurement": "cathepsin D activity", "setting": "[3]; [4]", "value": "0.013 unit/ml of enzyme/min/μg of proteins"}
    ]}
  ]
}
